We go through 1 compound from patent US20150030706A1, “USE OF ESSENTIAL OILS, SUPERCRITICAL EXTRACTS AND AQUEOUS RESIDUES GENERATED DURING A PROCESS FOR OBTAINING ORGANIC EXTRACTS FROM THE ARTEMISIA ABSINTHIUM L. PLANT” (CONSEJO SUPERIOR DE INVESTIGACIONES CIENTIFICAS (CSIC), priority 2012, published 2015).

Structures are written as SMILES.

The experiment has as its system Meloidogyne javanica. In words: Nematicide activity against infective juveniles (J2). Type of experiment: in vivo. The method, then: The assays were carried out according to the methodology described for Meloidogyne sp (Hernández-Carlos et al. 2011, Sosa et al. 2012) using the biological stage of infected juvenile (J2) Meloidogyne javanica in the assays. The activity of each product was quantified at different concentrations, shown in Table 5 and in at least four copies, each bio-assay was repeated at least three times and the nematostatic/nematicide activity was determined from the percentage of infected juvenile plants immobilised/which died.

`C=C/C(C)=C\CC(O)C(C)(C)O` (stereo not shown) [(Z)-2,6-dimethylocta-5,7-diene-2,3-diol]: the “M. javanica % J2 immobilised Average” value by setting is: (Concentration 0.02 μg/μl) 4.2%; (Concentration 0.1 μg/μl) 19.7%; (Concentration 0.25 μg/μl) 43.9%; (Concentration 0.5 μg/μl) 100%.
